# Legend:
# PGE2 = PGE2 level in paw tissue homogenate (ELISA); format: in vivo, rat; conditions: for PGE2 paw tissue level compared to the carrageenan group: rat paw 5 h after carrageenan, CLX 30, 4b 36, 4c 40 mg/kg i.p., P < 0.001, 0.05 and 0.001 respectively; for PGE2 paw tissue level in comparison to the CLX group: P < 0.001
# Method: (§1) After overnight fasting, five groups of rats were randomly divided (n = 5). Group I (Control): injected only with the DMSO solution (1.2 ml/kg, i.p, 10% v/v of DMSO in sterile 0.9% saline solution). Group II (Carrageenan): injected with carrageenan [0.1 ml of a freshly prepared solution of carrageenan (1% w/v in sterile 0.9% saline solution) into the sub-plantar region of the right hind paw] and the DSMO solution. Group III (CLX): injected the standard drug CLX (30 mg/kg, i.p, 2.5% w/v in the DMSO solution). Group IV (4 b) injected the test drug 4 b (36 mg/kg, i.p, 2% w/v in the vehicle). Group V (4c): injected the test drug 4c (40 mg/kg, i.p, 2% w/v in the DMSO solution). The selected doses of 4 b and 4c were equimolar to 30 mg/kg CLX. One hour after treatments, edema caused by carrageenan injection as described above. A digital vernier caliper (Elora, Germany) was used to measure the thickness of the paw right prior to injection of carrageenan and thereafter at 1, 2, 3, 4, and 5 h.
# (§2) After five hours from carrageenan injection, the rats were euthanized using […] with removal of the inflamed paws. Tissues of rat hind-paw’s pad were collected, and 5-mm pieces were homogenised in iced phosphate buffer saline (pH 7.4) on ice. Next, the prepared homogenate was centrifuged (10,000 g, 15 min, 4 °C) and the obtained supernatant was collected for additional analysis. The remaining tissue was fixed in formalin (10% v/v) for 24 h after which it was inserted in paraffin wax.
# (§3) Levels of prostaglandin E2 (PGE2) and tumour necrosis factor-alpha (TNF-α) were measured in paw tissue homogenate using ELISA kits (Cusabio Technology LLC, TX, United States) and as per the guidelines provided by the manufacturer.
# TNF-α = TNF-α level in paw tissue homogenate (ELISA); format: in vivo, rat; conditions: for TNF-α paw tissue level compared to the carrageenan group: rat paw 5 h after carrageenan, CLX 30, 4b 36, 4c 40 mg/kg i.p., P < 0.001; for TNF-α lowering effect compared with CLX: P < 0.01
# Method: as §1, §2, §3
# NF-κB = assay: Immunohistochemistry of NF-κB p65 expression in paw tissue; format: in vivo; conditions: rat paw 5 h after carrageenan; CLX 30, 4b 36, 4c 40 mg/kg i.p.; significant (P < 0.05) only with CLX
# Method: as §1, §2
# (§4) Paraffinized tissue sections were dewaxed in xylene and mounted on slides then […] with hematoxylin-eosin (H&E) for histopathological evaluation of inflammation. Inflammation score from 0 to 5 was given as follows: 0,1,2,3,4, and 5 if there is no, mild, mild/moderate, moderate, moderate/severe, and severe inflammation, respectively.[48] […] Immunostained sections were scored as follows: 0,1, 2 and 3 if there is no, weak, moderate, and strong staining effect, respectively.[49]
# [1] = tested on: carrageenan-induced paw edoema; assay: Carrageenan-induced rat paw edoema, paw swelling; format: in vivo; conditions: rats, i.p. 1 h before carrageenan; CLX 30 mg/kg, 4b 36 mg/kg, 4c 40 mg/kg; 1-5 h
# Text: The anti-inflammatory activity of the two selected compounds from the above screening, 4b and 4c was scrutinized in vivo using a paw edema model produced by carrageenan. Male Sprague Dawley rats (180–200 g) were obtained from Vacsera (Giza, Egypt) and maintained at rtunfettered access to food and water in a light-controlled space with a twelve-hour light/dark cycle. The research ethics committee at Mansoura University, Egypt examined and authorized the experiments (code number: 2022–78).
# as §1
# The paw edoema (E%) and edoema inhibition rate (I%) were calculated as follow: E%=B−A/A×100,
# A: paw thickness (mm) just before carrageenan injection and B: paw thickness (mm) at different time intervals after carrageenan injection: I%=Ec−Et/Ec×100,
# Ec: mean paw edoema of the carrageenan group and Et is the paw odema of the tested groups.
# [2] = tested on: carrageenan-injected rat paw tissue; assay: Histopathological (H&E) inflammation scoring of carrageenan-inflamed paw tissue; format: in vivo; conditions: rat paw 5 h after carrageenan; CLX 30, 4b 36, 4c 40 mg/kg i.p.; significant (P < 0.05) only with CLX
# Method: as §1, §2, §4
# nitric oxide (NO) = assay: NO content in paw tissue homogenate (colorimetric kit); format: in vivo, rat; conditions: for NO paw tissue content compared to CLX: P < 0.01
# Method: as §1, §2
# Contents of malondialdehyde (MDA) as a lipid peroxidation product, and nitric oxide (NO) as anitrosative product, were measured in paw tissue homogenate using colorimetric commercial kits (Biodiagnostic, Giza, Egypt) and as per the guidelines provided by the manufacturer.
# COX-1 = target: T1, COX-1 (Ovis aries, UniProt P05979); assay: In vitro COX-1 inhibition, colorimetric screening assay kit; conditions: for HillSlope (best-fit value), COX-1 inhibition / LogIC50 (best-fit value), COX-1 inhibition: supplementary dose-response curve
# T1 sequence (P05979 25-600): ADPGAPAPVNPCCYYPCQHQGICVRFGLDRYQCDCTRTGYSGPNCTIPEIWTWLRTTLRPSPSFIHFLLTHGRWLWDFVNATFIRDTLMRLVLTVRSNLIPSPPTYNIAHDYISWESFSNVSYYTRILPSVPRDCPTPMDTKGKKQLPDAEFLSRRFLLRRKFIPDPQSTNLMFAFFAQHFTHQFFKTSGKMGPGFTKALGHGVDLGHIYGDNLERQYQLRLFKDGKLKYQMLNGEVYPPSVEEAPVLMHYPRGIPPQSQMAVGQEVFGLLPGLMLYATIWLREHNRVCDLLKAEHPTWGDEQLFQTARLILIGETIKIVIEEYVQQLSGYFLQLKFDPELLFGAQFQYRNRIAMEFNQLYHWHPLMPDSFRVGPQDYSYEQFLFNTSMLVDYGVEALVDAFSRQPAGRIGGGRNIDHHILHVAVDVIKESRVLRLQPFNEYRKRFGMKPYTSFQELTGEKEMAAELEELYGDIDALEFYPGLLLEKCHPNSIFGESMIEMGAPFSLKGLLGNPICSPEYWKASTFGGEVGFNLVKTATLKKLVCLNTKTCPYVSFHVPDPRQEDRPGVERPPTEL
# Method: (§5) This assay examined the inhibitory potency of the target structures towardboth COX isoforms via colorimetric screening assay kit (Cayman Chemical, MI, United States) based on the directions provided by the manufacturer. ELISA reader Thermo Scientific Multiskan® EX (Thermo scientific, United States) was used. […] Serial dilutions of CLX, as a reference standard, and tested compounds at concentrations of 1000, 300, 100, 30, 10, 3, 1, and 0.30 nM were used in the assay. IC50 of the tested compounds were determined using three different experiments. The selectivity (SI) of each ompound was measured using the COX-2/COX-1 ratio, which compares the IC50 of COX-2 and COX-1.
# COX-2 [3] = target: T2, COX-2 (Homo sapiens, UniProt P35354); assay: In vitro COX-2 inhibition, colorimetric screening assay kit; conditions: for (SI) in vitro COX-2 selectivity index: COX-1 IC50/COX-2 IC50; for HillSlope (best-fit value), COX-2 inhibition / LogIC50 (best-fit value), COX-2 inhibition: supplementary dose-response curve
# T2 sequence (P35354 18-604): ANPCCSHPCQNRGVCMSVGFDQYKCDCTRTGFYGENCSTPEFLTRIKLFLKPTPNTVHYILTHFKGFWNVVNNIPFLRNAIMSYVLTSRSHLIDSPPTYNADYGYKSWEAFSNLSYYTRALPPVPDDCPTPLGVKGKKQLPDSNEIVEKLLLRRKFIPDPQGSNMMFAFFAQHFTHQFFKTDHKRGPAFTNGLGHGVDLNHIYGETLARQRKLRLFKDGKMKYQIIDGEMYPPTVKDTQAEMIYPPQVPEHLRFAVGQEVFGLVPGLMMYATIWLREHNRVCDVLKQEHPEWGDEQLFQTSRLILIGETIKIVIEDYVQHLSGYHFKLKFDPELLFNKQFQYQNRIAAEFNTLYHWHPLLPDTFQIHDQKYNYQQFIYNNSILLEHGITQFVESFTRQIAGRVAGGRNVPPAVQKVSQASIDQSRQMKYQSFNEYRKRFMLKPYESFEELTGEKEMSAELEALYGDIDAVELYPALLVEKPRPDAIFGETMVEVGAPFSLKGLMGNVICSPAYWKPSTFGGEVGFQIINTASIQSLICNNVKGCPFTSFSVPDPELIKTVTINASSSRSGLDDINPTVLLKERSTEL
# Method: as §5
# COX-2 [4] = assay: Immunohistochemistry of COX-2 expression in paw tissue; format: in vivo; conditions: rat paw 5 h after carrageenan; CLX 30, 4b 36, 4c 40 mg/kg i.p.
# Method: After overnight fasting, five groups of rats were randomly divided (n = 5). Group I (Control): injected only with the DMSO solution (1.2 ml/kg, i.p, 10% v/v of DMSO in sterile 0.9% saline solution). Group II (Carrageenan): injected with carrageenan [0.1 ml of a freshly prepared solution of carrageenan (1% w/v in sterile 0.9% saline solution) into the sub-plantar region of the right hind paw] and the DSMO solution. […] One hour after treatments, edema caused by carrageenan injection as described above. A digital vernier caliper (Elora, Germany) was used to measure the thickness of the paw right prior to injection of carrageenan and thereafter at 1, 2, 3, 4, and 5 h.
# After five hours from carrageenan injection, the rats were euthanized using surgical dislocation with removal of the inflamed paws. Tissues of rat hind-paw’s pad were collected, and 5-mm pieces were homogenised in iced phosphate buffer saline (pH 7.4) on ice. […]
# The other set of sections were immunostained to examine expression levels of COX-2 and nuclear factor kappa B (NF-κB p65) using monoclonal antibodies (Thermo Fisher Scientific, MA, United States) and as per the guidelines provided by the manufacturer. Immunostained sections were scored as follows: 0,1, 2 and 3 if there is no, weak, moderate, and strong staining effect, respectively.[49]
# COX-2 [5] = conditions: printed in Figure 1, comparator of an unlabelled compound; cited from earlier work
# [6] = parameters: method as in PMID 29426771, PMID 11600237, PMID 33266208, PMID 19084415, PMID 35423143; conditions: Figure 1; cited from earlier work
IC50 (COX-1),"HillSlope (best-fit value), COX-1 inhibition (COX-1)","LogIC50 (best-fit value), COX-1 inhibition (COX-1)",IC50 (COX-2 [3]),(SI) in vitro COX-2 selectivity index (COX-2 [3]),"HillSlope (best-fit value), COX-2 inhibition (COX-2 [3])","LogIC50 (best-fit value), COX-2 inhibition (COX-2 [3])",melting point,Compound,PGE2 paw tissue level compared to the carrageenan group (PGE2),TNF-α paw tissue level compared to the carrageenan group (TNF-α),NF-κB positive expression score compared to the carrageenan group (NF-κB),percentage of paw swelling compared to the carrageenan group [1],semi-quantitative inflammation score (H&E) compared to the carrageenan group [2],PGE2 paw tissue level in comparison to the CLX group (PGE2),NO paw tissue content compared to CLX (nitric oxide (NO)),TNF-α lowering effect compared with CLX (TNF-α),COX-2 positive expression score compared to the carrageenan group (COX-2 [4]),other results
–,–,–,–,–,–,–,–,"Cc1ccc(-c2cc(C(F)(F)F)nn2-c2ccc(S(N)(=O)=O)cc2)cc1 [Celecoxib, reference compound]",reduced,decrease,decreased,marked lower percentages of paw swelling,decreased,–,–,–,–,–
238.5 ± 2.08 nM,-0.4124,2.378 Log (nM),53.8 ± 2.05 nM,4.44,-0.2859,1.730 Log (nM),190 to 192 °C,"Cc1c(NC(=O)CSc2nnc(-c3ccc(Cl)cc3)o2)c(=O)n(-c2ccccc2)n1C [4b, 2-((5–(4-Chlorophenyl)-1,3,4-oxadiazol-2-yl)thio)-N-(1,5-dimethyl-3-oxo-2-phenyl-2,3-dihydro-1H-pyrazol-4-yl)acetamide]",reduced,decrease,decreased,marked lower percentages of paw swelling,decreased,higher levels,higher,higher,decreased,–
130 ± 2.3 nM,-0.4106,2.112 Log (nM),69.8 ± 2.14 nM,1.86,-0.3652,1.844 Log (nM),173 to 175 °C,"Cc1c(NC(=O)CSc2nnc(-c3ccc(Br)cc3)o2)c(=O)n(-c2ccccc2)n1C [4c, 2-((5–(4-Bromophenyl)-1,3,4-oxadiazol-2-yl)thio)-N-(1,5-dimethyl-3-oxo-2-phenyl-2,3-dihydro-1H-pyrazol-4-yl)acetamide]",reduced,decrease,decreased,marked lower percentages of paw swelling,decreased,higher levels,lower,higher,decreased,PGE2 paw tissue level compared to the 4b group (PGE2; P < 0.05): lower; NO paw tissue content compared to 4 b (nitric oxide (NO); P < 0.05): lower
–,–,–,–,–,–,–,–,Cc1cnc(NC(=O)C2=C(O)c3ccccc3S(=O)(=O)N2C)s1 [Meloxicam],–,–,–,–,–,–,–,–,–,% inhibition against COX-2 (COX-2 [5]): 44.95%
–,–,–,–,–,–,–,–,CC(=O)Nc1nnc(SCC(=O)Nc2c(C)n(C)n(-c3ccccc3)c2=O)s1 [Compound A],–,–,–,–,–,–,–,–,–,more active than diclofenac Na as antiinflammatory [6]: 46%
